From the CheMixHub ionic liquid set

Test: xn = mol fraction of the nth substance listed

CCCC[P+](CCCC)(CCCC)CCCC.F[B-](F)(F)F + C1CCOC1
298.15 K, 100 kPa
Settings | viscosity [mPa·s]
x1 = 0.0008214 | 0.468
x1 = 0.001232 | 0.473
x1 = 0.001649 | 0.478
x1 = 0.002058 | 0.483
x1 = 0.002474 | 0.489
x1 = 0.002883 | 0.495

CCCC[P+](CCCC)(CCCC)CCCC.F[B-](F)(F)F + C1CCOC1 + C1COCO1
298.15 K, 100 kPa
Settings | viscosity [mPa·s]
x1 = 0.0007279, x2 = 0.2549 | 0.563
x1 = 0.0007522, x2 = 0.5064 | 0.531
x1 = 0.0007834, x2 = 0.7544 | 0.499
x1 = 0.001095, x2 = 0.2548 | 0.569
x1 = 0.001131, x2 = 0.5062 | 0.537
x1 = 0.001182, x2 = 0.7541 | 0.505
x1 = 0.001455, x2 = 0.2547 | 0.575
x1 = 0.001511, x2 = 0.506 | 0.542
x1 = 0.001573, x2 = 0.7538 | 0.51
x1 = 0.001821, x2 = 0.2546 | 0.581
x1 = 0.001889, x2 = 0.5058 | 0.548
x1 = 0.001971, x2 = 0.7535 | 0.516
x1 = 0.00218, x2 = 0.2545 | 0.588
x1 = 0.002268, x2 = 0.5056 | 0.554
x1 = 0.002368, x2 = 0.7532 | 0.522
x1 = 0.002547, x2 = 0.2544 | 0.595
x1 = 0.002646, x2 = 0.5054 | 0.561
x1 = 0.002758, x2 = 0.7529 | 0.528

CCCC[P+](CCCC)(CCCC)CCCC.F[B-](F)(F)F + C1COCO1
298.15 K, 100 kPa
Settings | viscosity [mPa·s]
x1 = 0.0007033 | 0.595
x1 = 0.001051 | 0.6
x1 = 0.001406 | 0.606
x1 = 0.001753 | 0.613
x1 = 0.002107 | 0.62
x1 = 0.002453 | 0.627

CCCC[n+]1ccccc1.N#C[N-]C#N + CC1COC(=O)O1
101 kPa
Settings | electrical conductivity [S/m] | viscosity [mPa·s]
288.15 K, x1 = 0.1003 | 0.537 | 4.857
293.15 K, x1 = 0.4997 | 1.69 | 14.49
298.15 K, x1 = 0.3005 | 1.76 | 6.995
298.15 K, x1 = 0.7011 | 2.05 | 19.85
298.15 K, x1 = 0.7885 | 2.28 | 24.95
303.15 K, x1 = 0.3005 | 1.98 | 6.097
303.15 K, x1 = 0.6002 | 2.338 | 13.28
308.15 K, x1 = 0.1003 | 1.38 | 3.024
308.15 K, x1 = 0.3005 | 2.227 | 5.372
308.15 K, x1 = 0.7011 | 2.55 | 14.09
313.15 K, x1 = 0.1003 | 1.6 | 2.75
313.15 K, x1 = 0.3005 | 2.49 | 4.766
318.15 K, x1 = 0.1003 | 1.77 | 2.498
318.15 K, x1 = 0.7011 | 3.09 | 10.47
323.15 K, x1 = 0.197 | 2.44 | 3.04
323.15 K, x1 = 0.3005 | 3.038 | 3.842
323.15 K, x1 = 0.7011 | 3.432 | 9.16
323.15 K, x1 = 0.7885 | 3.732 | 10.85
328.15 K, x1 = 0.6002 | 3.724 | 6.707
328.15 K, x1 = 1 | 3.2 | 12.59
333.15 K, x1 = 0.197 | 2.94 | 2.58
333.15 K, x1 = 0.3005 | 3.66 | 3.172
333.15 K, x1 = 0.7011 | 4.16 | 7.185
333.15 K, x1 = 1 | 3.49 | 11.08
338.15 K, x1 = 0.197 | 3.17 | 2.394
343.15 K, x1 = 0.7011 | 4.98 | 5.796
343.15 K, x1 = 0.9008 | 5.122 | 7.641
348.15 K, x1 = 0.3005 | 4.732 | 2.474
348.15 K, x1 = 0.7011 | 5.416 | 5.253
353.15 K, x1 = 0.4003 | 5.33 | 2.965

CC[n+]1ccn(C)c1.N#C[S-] + CC1COC(=O)O1
101.3 kPa
Settings | electrical conductivity [S/m] | viscosity [mPa·s]
293.15 K, x1 = 0.2045 | 2.09 | 5.834
293.15 K, x1 = 0.2984 | 2.24 | 7.631
298.15 K, x1 = 0.0989 | 1.68 | 3.689
298.15 K, x1 = 0.4 | 2.36 | 8.466
298.15 K, x1 = 0.599 | 2.15 | 12.93
298.15 K, x1 = 0.7045 | 2.06 | 15.47
313.15 K, x1 = 0.7045 | 2.76 | 10.1
318.15 K, x1 = 0.2045 | 3.18 | 2.991
318.15 K, x1 = 0.2984 | 3.43 | 3.817
318.15 K, x1 = 0.599 | 3.12 | 7.316
318.15 K, x1 = 0.7045 | 3.02 | 8.83
318.15 K, x1 = 0.8942 | 2.77 | 11.64
323.15 K, x1 = 0.2045 | 3.45 | 2.665
323.15 K, x1 = 0.499 | 3.49 | 5.278
323.15 K, x1 = 0.599 | 3.4 | 6.4
328.15 K, x1 = 0.499 | 3.77 | 4.608
328.15 K, x1 = 0.599 | 3.68 | 5.614
328.15 K, x1 = 0.796 | 3.45 | 7.7
328.15 K, x1 = 0.8942 | 3.31 | 8.9
333.15 K, x1 = 0.0989 | 3.33 | 1.702
338.15 K, x1 = 0.0989 | 3.601 | –
338.18 K, x1 = 0.2984 | – | 2.283
343.15 K, x1 = 0.4 | 4.79 | 2.568
343.15 K, x1 = 0.499 | 4.66 | 3.183
343.15 K, x1 = 1 | 4.01 | 7.236

C=C[n+]1ccn(CC(N)=O)c1.O=S(=O)([N-]S(=O)(=O)C(F)(F)F)C(F)(F)F + CC#N
100 kPa
Settings | electrical conductivity [S/m] | viscosity [mPa·s]
298.15 K, x1 = 0.01 | 1.29 | 0.67
303.15 K, x1 = 0.07 | 3.51 | –
303.15 K, x1 = 0.1 | 3.28 | 10
303.15 K, x1 = 0.2 | 1.77 | –
303.15 K, x1 = 0.201 | – | 69
303.15 K, x1 = 0.393 | 0.48 | –
303.15 K, x1 = 0.4011 | – | 680
308.15 K, x1 = 0.01 | 1.4 | 0.61
308.15 K, x1 = 0.02 | 2.78 | –
308.15 K, x1 = 0.201 | – | 60
308.15 K, x1 = 1 | 0.03 | –
313.15 K, x1 = 0.1 | 3.8 | 8.2
313.15 K, x1 = 0.4011 | – | 424
318.15 K, x1 = 0.01 | 1.53 | 0.55
318.15 K, x1 = 0.047 | 3.87 | –
318.15 K, x1 = 0.2 | 2.38 | –
323.15 K, x1 = 0.08 | 4.39 | –
323.15 K, x1 = 0.2 | 2.58 | –
323.15 K, x1 = 0.3026 | – | 119
323.15 K, x1 = 1 | 0.1 | –
328.15 K, x1 = 0.07 | 4.58 | –
328.15 K, x1 = 0.1 | 4.49 | 6.6
328.15 K, x1 = 0.4011 | – | 233
328.15 K, x1 = 1 | 0.14 | –
333.15 K, x1 = 0.047 | 4.34 | –
333.15 K, x1 = 0.201 | – | 32.7

CCCCCC[n+]1ccccc1.O=[N+]([O-])[O-] + CC#N
298.15 K, 101 kPa
Settings | viscosity [mPa·s]
x1 = 0.004149 | 0.5468
x1 = 0.008252 | 0.6095
x1 = 0.0124 | 0.6478
x1 = 0.01616 | 0.6731
x1 = 0.02021 | 0.6913
x1 = 0.02422 | 0.7042
x1 = 0.02814 | 0.7132
x1 = 0.032 | 0.7169
x1 = 0.03564 | 0.7185
x1 = 0.03937 | 0.7176

CCCC[P+](CCCC)(CCCC)CCCC.F[B-](F)(F)F + CC#N
viscosity [mPa·s], 100 kPa
Settings | 293.15 K | 298.15 K | 303.15 K | 308.15 K | 313.15 K | 318.15 K
x1 = 0.0005293 | – | 0.347 | – | – | – | –
x1 = 0.0007957 | – | 0.35 | – | – | – | –
x1 = 0.001066 | – | 0.353 | – | – | – | –
x1 = 0.001332 | – | 0.356 | – | – | – | –
x1 = 0.001602 | – | 0.36 | – | – | – | –
x1 = 0.001872 | – | 0.363 | – | – | – | –
x1 = 0.004186 | 0.373 | 0.356 | 0.341 | 0.326 | 0.313 | 0.3
x1 = 0.0082 | 0.395 | 0.376 | 0.359 | 0.343 | 0.329 | 0.315
x1 = 0.01203 | 0.415 | 0.395 | 0.376 | 0.359 | 0.344 | 0.329
x1 = 0.01623 | 0.439 | 0.417 | 0.398 | 0.378 | 0.362 | 0.346
x1 = 0.01997 | 0.462 | 0.439 | 0.417 | 0.397 | 0.379 | 0.362
x1 = 0.02402 | 0.489 | 0.463 | 0.441 | 0.417 | 0.399 | 0.38
x1 = 0.02784 | 0.514 | 0.485 | 0.459 | 0.438 | 0.417 | 0.398
x1 = 0.03177 | 0.539 | 0.512 | 0.484 | 0.459 | 0.437 | 0.416
x1 = 0.03555 | 0.565 | 0.533 | 0.505 | 0.479 | 0.456 | 0.434
x1 = 0.03928 | 0.597 | 0.565 | 0.533 | 0.505 | 0.48 | 0.456
